{"source": "ChEMBL document CHEMBL1201862", "about": "“PubChem BioAssay data set” (2004)", "key": {"Large T antigen": {"biological_target": "Large T antigen (Simian virus 40, UniProt P03070)", "sequence (P03070 whole entry)": "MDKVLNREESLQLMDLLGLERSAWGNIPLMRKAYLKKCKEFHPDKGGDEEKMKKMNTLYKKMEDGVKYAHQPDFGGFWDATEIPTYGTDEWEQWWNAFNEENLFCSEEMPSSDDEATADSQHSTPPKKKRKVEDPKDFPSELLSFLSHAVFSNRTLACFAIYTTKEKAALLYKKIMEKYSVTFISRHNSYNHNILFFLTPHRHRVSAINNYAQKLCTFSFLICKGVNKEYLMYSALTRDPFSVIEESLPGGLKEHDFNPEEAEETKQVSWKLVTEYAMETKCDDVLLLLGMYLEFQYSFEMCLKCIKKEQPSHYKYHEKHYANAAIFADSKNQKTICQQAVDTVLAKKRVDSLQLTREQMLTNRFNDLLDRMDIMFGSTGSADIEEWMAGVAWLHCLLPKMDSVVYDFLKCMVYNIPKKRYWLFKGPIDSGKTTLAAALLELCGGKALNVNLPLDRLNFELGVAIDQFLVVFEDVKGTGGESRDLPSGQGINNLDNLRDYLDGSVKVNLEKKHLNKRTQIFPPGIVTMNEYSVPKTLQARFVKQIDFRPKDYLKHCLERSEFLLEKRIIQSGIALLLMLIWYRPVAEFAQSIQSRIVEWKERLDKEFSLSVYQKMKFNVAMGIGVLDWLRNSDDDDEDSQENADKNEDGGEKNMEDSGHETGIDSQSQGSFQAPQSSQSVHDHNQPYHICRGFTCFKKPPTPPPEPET", "format": "functional, Betapolyomavirus macacae"}, "[1]": {"biological_target": "Alkaline phosphatase, placental type (Homo sapiens, UniProt P05187)", "sequence (P05187 whole entry)": "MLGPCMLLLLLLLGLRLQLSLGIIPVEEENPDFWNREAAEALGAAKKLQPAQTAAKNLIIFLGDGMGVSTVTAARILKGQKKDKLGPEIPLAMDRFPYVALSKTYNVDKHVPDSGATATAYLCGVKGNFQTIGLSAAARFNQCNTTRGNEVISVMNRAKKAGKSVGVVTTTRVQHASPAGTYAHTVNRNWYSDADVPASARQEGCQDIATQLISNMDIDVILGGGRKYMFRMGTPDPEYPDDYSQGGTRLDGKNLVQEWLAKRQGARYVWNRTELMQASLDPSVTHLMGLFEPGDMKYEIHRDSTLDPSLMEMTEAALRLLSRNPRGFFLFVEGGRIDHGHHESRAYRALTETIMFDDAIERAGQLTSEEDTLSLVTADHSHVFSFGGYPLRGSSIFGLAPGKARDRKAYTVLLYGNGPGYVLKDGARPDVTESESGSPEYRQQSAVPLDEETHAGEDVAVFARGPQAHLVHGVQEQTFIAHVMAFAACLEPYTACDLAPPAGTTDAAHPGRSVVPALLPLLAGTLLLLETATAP", "experiment": "PLAP enzyme inhibitors, confirmation, biochemical, luminescence (AID 1512)", "format": "functional"}, "[2]": {"biological_target": "DNA dC->dU-editing enzyme APOBEC-3G (Homo sapiens, UniProt Q9HC16)", "sequence (Q9HC16 whole entry)": "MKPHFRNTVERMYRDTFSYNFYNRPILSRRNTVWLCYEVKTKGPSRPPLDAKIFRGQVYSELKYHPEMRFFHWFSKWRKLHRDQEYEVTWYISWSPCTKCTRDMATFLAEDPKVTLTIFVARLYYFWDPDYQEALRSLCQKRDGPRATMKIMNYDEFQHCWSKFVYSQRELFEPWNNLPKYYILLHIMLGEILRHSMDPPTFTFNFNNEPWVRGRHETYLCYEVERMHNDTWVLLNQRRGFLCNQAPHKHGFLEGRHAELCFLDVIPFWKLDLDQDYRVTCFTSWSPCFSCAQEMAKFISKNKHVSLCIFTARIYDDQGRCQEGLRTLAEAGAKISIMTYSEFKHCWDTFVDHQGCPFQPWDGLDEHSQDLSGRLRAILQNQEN", "format": "functional"}, "[3]": {"biological_target": "DNA dC->dU-editing enzyme APOBEC-3A (Homo sapiens, UniProt P31941)", "sequence (P31941 whole entry)": "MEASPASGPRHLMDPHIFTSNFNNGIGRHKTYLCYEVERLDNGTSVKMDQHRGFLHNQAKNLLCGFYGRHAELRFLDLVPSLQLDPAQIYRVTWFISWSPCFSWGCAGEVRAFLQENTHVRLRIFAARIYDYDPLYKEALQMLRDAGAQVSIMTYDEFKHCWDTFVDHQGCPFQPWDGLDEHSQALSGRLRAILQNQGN", "experiment": "Dose Response confirmation of small molecule APOBEC3A DNA Deaminase Inhibitors via a fluorescence-based single-stranded DNA deaminase assay. [Related pubchem assays (depositor defined):AID493011, AID493024]", "format": "functional"}, "Cytochrome P450 2C19": {"biological_target": "Cytochrome P450 2C19 (Homo sapiens, UniProt P33261)", "sequence (P33261 whole entry)": "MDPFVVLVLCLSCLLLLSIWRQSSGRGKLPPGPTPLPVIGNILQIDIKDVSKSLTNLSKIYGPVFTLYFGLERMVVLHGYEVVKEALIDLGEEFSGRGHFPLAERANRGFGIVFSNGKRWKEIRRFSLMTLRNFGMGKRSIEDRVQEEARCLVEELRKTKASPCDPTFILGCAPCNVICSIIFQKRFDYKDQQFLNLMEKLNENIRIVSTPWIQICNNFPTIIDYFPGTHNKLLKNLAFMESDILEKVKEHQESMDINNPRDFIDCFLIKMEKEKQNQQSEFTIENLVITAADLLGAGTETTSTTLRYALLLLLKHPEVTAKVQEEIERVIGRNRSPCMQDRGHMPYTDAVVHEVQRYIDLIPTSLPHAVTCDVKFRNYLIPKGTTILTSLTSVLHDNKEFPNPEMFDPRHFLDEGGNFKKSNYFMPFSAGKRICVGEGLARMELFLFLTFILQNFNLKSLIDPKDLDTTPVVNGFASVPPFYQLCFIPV", "experiment": "Cytochrome panel assay with activity outcomes. Panel member name: p450-cyp2c19 Compounds with AC50 equal or less than 10 uM are considered active", "format": "functional", "settings": "read-out: AC50"}, "[4]": {"biological_target": "DNA damage-inducible transcript 3 protein (Mus musculus, UniProt P35639)", "sequence (P35639 whole entry)": "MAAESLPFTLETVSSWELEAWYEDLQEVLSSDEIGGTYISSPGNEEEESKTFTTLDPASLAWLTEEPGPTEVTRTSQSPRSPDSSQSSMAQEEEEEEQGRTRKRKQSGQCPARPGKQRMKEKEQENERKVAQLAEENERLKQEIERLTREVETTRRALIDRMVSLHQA", "format": "functional, Cricetulus griseus"}, "[5]": {"biological_target": "T1, Lytic switch protein BZLF1 (Epstein-Barr virus (strain B95-8) (HHV-4) (Human herpesvirus 4), UniProt P03206)", "T1 sequence (P03206 whole entry)": "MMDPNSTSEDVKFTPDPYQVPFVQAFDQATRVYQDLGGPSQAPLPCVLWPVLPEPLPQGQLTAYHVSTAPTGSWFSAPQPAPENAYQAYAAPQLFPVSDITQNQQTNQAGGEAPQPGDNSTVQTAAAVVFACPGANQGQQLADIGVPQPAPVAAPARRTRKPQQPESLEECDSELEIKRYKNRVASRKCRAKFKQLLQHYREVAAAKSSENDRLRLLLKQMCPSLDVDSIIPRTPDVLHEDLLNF", "experiment": "EBV ZTA inhibitors, dose response, counter-screen for EBNA-1 inhibitor project, biochemical, fluorescence polarization, Epstein-Barr virus, 1536-well (AID 2377);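 further: fluorescence polarization of Cy5-labelled ZRE DNA probe bound by purified Zta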", "parameters": "species or system human gammaherpesvirus 4"}, "[6]": {"biological_target": "T2, Epstein-Barr nuclear antigen 1 (Epstein-Barr virus (strain B95-8) (HHV-4) (Human herpesvirus 4), UniProt P03211)", "T2 sequence (P03211 whole entry)": "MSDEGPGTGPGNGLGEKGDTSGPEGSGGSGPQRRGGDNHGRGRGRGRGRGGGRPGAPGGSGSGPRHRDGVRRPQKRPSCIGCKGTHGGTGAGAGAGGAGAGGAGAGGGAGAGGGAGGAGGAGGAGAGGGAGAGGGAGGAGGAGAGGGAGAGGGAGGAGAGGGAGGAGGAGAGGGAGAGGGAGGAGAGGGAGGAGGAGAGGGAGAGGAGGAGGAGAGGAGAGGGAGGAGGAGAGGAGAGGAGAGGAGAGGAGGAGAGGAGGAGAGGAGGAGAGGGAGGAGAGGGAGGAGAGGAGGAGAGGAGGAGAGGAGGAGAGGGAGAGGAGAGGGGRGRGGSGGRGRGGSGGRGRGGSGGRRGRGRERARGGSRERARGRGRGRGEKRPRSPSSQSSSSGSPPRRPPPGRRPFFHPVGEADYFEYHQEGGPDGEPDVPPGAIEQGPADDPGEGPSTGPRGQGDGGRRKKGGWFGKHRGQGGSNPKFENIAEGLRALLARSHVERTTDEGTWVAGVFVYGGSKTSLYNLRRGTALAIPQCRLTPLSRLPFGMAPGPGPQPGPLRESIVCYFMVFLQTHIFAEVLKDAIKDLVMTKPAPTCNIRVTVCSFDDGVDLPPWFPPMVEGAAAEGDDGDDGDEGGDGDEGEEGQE", "experiment": "EBNA-1 inhibitors, dose response, biochemical, fluorescence polarization, 1536-well (AID 2381);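 further: fluorescence polarization of a Cy5 DNA probe bound by EBNA-1 protein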", "parameters": "species or system human gammaherpesvirus 4"}, "CAAX prenyl protease 2": {"biological_target": "CAAX prenyl protease 2 (Saccharomyces cerevisiae S288c, UniProt Q03530)", "sequence (Q03530 whole entry)": "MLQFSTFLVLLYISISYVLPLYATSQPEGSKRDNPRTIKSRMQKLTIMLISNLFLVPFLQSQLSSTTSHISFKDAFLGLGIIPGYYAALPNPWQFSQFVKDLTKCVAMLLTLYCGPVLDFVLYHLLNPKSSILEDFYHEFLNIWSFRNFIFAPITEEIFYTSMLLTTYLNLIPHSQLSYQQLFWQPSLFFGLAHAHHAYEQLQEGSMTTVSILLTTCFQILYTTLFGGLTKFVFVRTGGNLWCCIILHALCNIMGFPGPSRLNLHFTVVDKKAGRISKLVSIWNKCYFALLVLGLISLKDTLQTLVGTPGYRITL", "format": "biochemical"}, "[7]": {"biological_target": "T3, Alkaline phosphatase, tissue-nonspecific isozyme (Homo sapiens, UniProt P05186)", "T3 sequence (P05186 whole entry)": "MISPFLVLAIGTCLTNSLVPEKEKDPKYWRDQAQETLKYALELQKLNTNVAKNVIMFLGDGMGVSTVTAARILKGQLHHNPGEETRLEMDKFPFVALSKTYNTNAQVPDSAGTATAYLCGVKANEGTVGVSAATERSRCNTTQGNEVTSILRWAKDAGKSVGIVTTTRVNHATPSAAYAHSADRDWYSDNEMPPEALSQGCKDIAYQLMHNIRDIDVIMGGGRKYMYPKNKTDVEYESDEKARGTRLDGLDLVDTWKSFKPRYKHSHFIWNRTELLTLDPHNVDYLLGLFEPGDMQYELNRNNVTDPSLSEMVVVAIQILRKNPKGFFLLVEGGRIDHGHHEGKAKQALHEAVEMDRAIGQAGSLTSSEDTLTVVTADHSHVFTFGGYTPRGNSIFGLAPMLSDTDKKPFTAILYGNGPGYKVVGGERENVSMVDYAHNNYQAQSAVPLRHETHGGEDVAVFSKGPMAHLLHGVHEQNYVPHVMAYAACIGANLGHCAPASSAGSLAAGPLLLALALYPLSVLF", "experiment": "human TNAP enzyme inhibitors, SAR follow-up, biochemical, luminescent, dose response (AID 1056)"}, "[8]": {"biological_target": "Glyceraldehyde-3-phosphate dehydrogenase (Homo sapiens, UniProt P04406)", "sequence (P04406 whole entry)": "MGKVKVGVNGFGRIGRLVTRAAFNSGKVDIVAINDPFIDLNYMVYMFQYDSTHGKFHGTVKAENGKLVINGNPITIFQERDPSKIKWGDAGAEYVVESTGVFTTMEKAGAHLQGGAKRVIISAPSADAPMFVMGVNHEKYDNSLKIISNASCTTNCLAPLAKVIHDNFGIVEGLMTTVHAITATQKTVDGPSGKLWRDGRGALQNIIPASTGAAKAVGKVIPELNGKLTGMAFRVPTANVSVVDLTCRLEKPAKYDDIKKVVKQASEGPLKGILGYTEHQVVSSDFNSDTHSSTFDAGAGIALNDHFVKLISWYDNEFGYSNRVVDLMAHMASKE"}}, "note": "Activity calls are given as the source filed them."}
{"compound": "COCc1cc(C)nc(SCC(=O)c2ccc(O)c(O)c2)c1C#N", "values": [{"measurement": "IC50", "setting": "Large T antigen", "result": "3.71 µM (active)"}, {"measurement": "IC50", "setting": "[1]", "result": "2.16 µM (active)"}]}
{"compound": "Cc1ccc(C(=O)Nc2cc(Cl)ccc2-n2cncn2)o1", "values": [{"measurement": "IC50", "setting": "[2]", "result": "20.5 µM (active)"}, {"measurement": "IC50", "setting": "[3]", "result": "85 µM (active)"}]}
{"compound": "Cc1cccc(OCC(=O)N/N=C\\C=C\\c2ccc3c(c2)OCO3)c1C", "values": [{"measurement": "AC50", "setting": "Cytochrome P450 2C19", "result": "10 µM (inconclusive)"}, {"measurement": "Absolute IC50 (CHOP)", "setting": "[4]", "result": 10, "unit": "µM"}, {"measurement": "IC50", "setting": "[5]", "result": "> 111 µM (not active)"}, {"measurement": "IC50", "setting": "[6]", "result": "5.84 µM (active)"}]}
{"compound": "C[C@@]12CCC=C[C@H]1[C@H](c1ccc(/C=C/c3ccccc3)cc1F)N(Cc1ccccc1)C2=O", "values": [{"measurement": "AC50", "setting": "CAAX prenyl protease 2", "result": "45.9 µM (active)"}]}
{"compound": "Cc1n[nH]c2c1C(=O)CC(C)(C)C2", "values": [{"measurement": "IC50", "setting": "[7]", "result": "19.9 µM (active)"}, {"measurement": "IC50", "setting": "[1]", "result": "> 100 µM (inactive)"}, {"measurement": "IC50", "setting": "[8]", "result": "> 100 µM (not active)"}]}
